Assay results published in US6197963A, “Non-peptide peptidomimetics” (The Trustees of the University of Pennsylvania, priority 1998, dated 2001).
Where two headings read alike, the source gives them in different places. Values belong to the molecule of their own block, whether it stands above or below them. Where a SMILES comes first, the peptide text is derived from it.

Experiments:
hSSTR4 = hSSTR4 (Homo sapiens, UniProt P31391); test: Binding at human SRIF receptor subtype hSSTR4; settings: TABLE 3; read-out: hSSTR 4 Ki
hSSTR4, sequence (P31391 whole entry): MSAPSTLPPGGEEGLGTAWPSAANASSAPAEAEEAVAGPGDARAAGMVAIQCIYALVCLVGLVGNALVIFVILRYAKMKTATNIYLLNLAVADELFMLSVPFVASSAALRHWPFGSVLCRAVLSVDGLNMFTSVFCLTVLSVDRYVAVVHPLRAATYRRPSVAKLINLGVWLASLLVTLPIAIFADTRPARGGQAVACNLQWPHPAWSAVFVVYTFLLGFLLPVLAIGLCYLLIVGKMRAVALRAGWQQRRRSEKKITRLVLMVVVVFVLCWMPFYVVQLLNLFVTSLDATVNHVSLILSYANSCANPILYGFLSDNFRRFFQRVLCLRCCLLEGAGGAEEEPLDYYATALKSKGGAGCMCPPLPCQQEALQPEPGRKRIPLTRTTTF

hSSTR2 = hSSTR2 (Homo sapiens, UniProt P30874); test: Binding at human SRIF receptor subtype hSSTR2; settings: TABLE 3; read-out: hSSTR 2 Ki
hSSTR2, sequence (P30874 whole entry): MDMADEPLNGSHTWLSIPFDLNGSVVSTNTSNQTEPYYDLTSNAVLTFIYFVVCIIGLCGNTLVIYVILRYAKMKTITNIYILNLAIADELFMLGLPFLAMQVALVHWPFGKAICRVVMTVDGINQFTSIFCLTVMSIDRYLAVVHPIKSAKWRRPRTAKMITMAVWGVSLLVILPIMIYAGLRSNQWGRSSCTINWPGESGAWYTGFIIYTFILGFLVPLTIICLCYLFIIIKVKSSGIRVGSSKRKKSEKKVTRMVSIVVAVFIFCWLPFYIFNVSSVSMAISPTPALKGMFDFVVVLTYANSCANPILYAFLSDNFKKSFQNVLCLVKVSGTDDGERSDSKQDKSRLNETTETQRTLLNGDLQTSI

hSSTR5 = hSSTR5 (Homo sapiens, UniProt P35346); test: Binding at human SRIF receptor subtype hSSTR5; settings: TABLE 3; read-out: hSSTR 5 Ki
hSSTR5, sequence (P35346 whole entry): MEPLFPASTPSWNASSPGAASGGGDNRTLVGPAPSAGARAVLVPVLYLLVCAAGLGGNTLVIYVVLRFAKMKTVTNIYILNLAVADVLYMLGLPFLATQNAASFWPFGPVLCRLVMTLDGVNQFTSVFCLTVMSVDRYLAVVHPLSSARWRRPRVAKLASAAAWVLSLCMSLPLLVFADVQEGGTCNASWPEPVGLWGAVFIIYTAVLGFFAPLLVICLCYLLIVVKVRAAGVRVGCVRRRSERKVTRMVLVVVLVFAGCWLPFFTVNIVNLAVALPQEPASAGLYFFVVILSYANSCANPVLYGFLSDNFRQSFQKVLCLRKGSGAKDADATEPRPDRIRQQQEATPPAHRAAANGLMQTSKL

[1] = tested on: SRIF receptors on AtT-20 cells; test: Binding at SRIF receptors of AtT-20 cells (Examples 104-110, Tables 1-3); design: species or system mouse
[2] = tested on: SRIF receptors on AtT-20 cells; settings: cited from earlier work; for IC50: read-out: IC50 at somatostatin receptors of AtT-20 cells, Nicolaou and Hirschmann, ESCOM 1990; for affinity for the SRIF receptor: relative to O-linked isomers or other glycosides
NK-1 receptor [3] = biological target: T1, NK-1 receptor (Homo sapiens, UniProt P25103); settings: cited from earlier work
T1 sequence (P25103 whole entry): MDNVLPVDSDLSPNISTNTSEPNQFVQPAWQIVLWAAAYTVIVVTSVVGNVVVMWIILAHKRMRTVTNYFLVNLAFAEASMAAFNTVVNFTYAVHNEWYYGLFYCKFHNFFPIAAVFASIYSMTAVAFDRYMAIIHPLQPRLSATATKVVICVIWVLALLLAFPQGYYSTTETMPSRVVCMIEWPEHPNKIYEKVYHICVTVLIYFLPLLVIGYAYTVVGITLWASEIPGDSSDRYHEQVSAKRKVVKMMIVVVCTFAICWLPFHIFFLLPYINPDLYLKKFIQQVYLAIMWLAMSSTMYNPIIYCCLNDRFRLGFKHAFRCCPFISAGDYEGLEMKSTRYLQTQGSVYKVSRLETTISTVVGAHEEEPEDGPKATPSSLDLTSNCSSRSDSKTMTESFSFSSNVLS

hSSTR3 = hSSTR3 (Homo sapiens, UniProt P32745); test: Binding at human SRIF receptor subtype hSSTR3; settings: TABLE 3; read-out: hSSTR 3 Ki
hSSTR3, sequence (P32745 whole entry): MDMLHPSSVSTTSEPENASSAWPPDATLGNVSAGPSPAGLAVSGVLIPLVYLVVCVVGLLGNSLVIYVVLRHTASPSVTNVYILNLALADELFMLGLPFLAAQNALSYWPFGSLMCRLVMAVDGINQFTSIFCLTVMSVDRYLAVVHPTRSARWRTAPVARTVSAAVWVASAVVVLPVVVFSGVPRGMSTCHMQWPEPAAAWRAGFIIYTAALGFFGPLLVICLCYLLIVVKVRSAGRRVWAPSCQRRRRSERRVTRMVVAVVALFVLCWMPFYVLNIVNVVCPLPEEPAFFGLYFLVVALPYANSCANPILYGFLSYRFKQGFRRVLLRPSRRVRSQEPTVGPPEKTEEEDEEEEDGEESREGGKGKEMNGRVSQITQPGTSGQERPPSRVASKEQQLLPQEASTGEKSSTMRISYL

β2-adrenergic receptor [4] = settings: cited from earlier work
five hSSTRs = test: Profile / average over the five human SRIF receptor subtypes; format: binding
hSSTR1 = hSSTR1 (Homo sapiens, UniProt P30872); test: Binding at human SRIF receptor subtype hSSTR1; settings: TABLE 3; read-out: hSSTR 1 Ki
hSSTR1, sequence (P30872 whole entry): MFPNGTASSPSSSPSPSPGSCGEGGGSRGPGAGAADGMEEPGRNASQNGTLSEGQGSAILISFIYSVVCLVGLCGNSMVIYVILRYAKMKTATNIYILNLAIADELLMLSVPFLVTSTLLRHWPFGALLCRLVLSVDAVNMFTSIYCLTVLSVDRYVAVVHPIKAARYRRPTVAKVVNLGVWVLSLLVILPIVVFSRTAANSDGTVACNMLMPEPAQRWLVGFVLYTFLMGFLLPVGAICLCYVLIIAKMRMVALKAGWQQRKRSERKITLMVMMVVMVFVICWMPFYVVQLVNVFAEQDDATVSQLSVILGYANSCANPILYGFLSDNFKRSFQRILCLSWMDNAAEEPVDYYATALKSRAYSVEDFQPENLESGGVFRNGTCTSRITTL

β-Adrenergic receptor = test: Displacement of 125I-CYP from β-adrenergic receptor, AtT-20; format: binding, mouse
[5] = biological target: T2, human neurokinin-1 receptor (NK1R) (Homo sapiens, UniProt P25103); test: Displacement of 125I-substance P from human NK1R expressed in COS cells (Example 12); format: binding; settings: for IC50: 125I-substance P, COS cells (Example 12)
T2 construct: expressed in transfected cells; host or cells: COS cells
T2 sequence (P25103 whole entry): as the sequence (P25103 whole entry) above
Description: The affinity of a variety of compounds for the substance P receptor was determined employing the following procedure.
To express the cloned human neurokinin-1 receptor (NK1R) transiently in COS, the cDNA for the human NK1R was cloned into the expression vector pCDM9 which was derived from pCDM8 (Invitrogen) by inserting the ampicillin resistance gene (nucleotide 1973 to 2964 from Bluescript SK+) into the Sac II site. Transfection of 20 μg of the plasmid DNA into 10 million COS cells was achieved by electroporation in 800 μl of the transfection buffer ([…], 1.2 mM MgCl2, 2.4 mM K2 HPO4, 0.6 mM KH2PO4, […], 10 mM HEPES pH 7.4) at 260 V and 950 μF using the IBI Genezapper (IBI, New Haven, Conn.). The cells were incubated in 10% fetal calf serum, 2 mM glutamine, 100 U/ml penicillin-streptomycin, and 90% DMEM media (Gibco, Grand Island, N.Y.) in 5% CO2 at 37° C. for three days before the binding assay.
The binding assay of human NK1R expressed in COS cells is based on the use of ^125 I-substance P (^125 I-SP, from DuPont, Boston, Mass.) as a radioactively labeled ligand which competes with unlabeled substance P or any other ligand for binding to the human NK1R. Monolayer cell cultures of COS were dissociated by the non-enzymatic solution (Specialty Media, Lavallette, N.J.) and resuspended in appropriate volume of the bind buffer (50 mM Tris pH 7.5, 5 mM MnCl2, 150 mM NaCl, 0.04 mg/ml bacitracin, 0.004 mg/ml leupeptin, 0.2 mg/ml BSA, 0.01 mM phosphoramidon) such that 200 μl of the cell suspension would give rise to about 10,000 cpm of specific ^125 I-SP binding (approximately 50,000 to 200,000 cells). In the binding assay, 200 μl of cells were added to a tube containing 20 μl of 1.5 to 2.5 nM of ^125 I-SP and 20 μl of unlabeled substance P or any other test compound. The tubes were incubated at 4° C. or at room temperature for 1 hour with gentle shaking. The bound radioactivity was separated from unbound radioactivity by GF/C filter (Brandel, Gaithersburg, Md.) which was pre-wetted with 0.1 polyethylenimine. The filter was washed with 3 ml of wash buffer (50 Tris pH 7.5, 5 mM MnCl2, 150 mM NaCl) three times and its radioactivity was determined by gamma counter.
A variety of compounds were tested according to the COS cell procedure. The concentration of compound required to inhibit the binding of substance P to the human neurokinin-1 receptor by 50% was measured.

SRIF receptor [6] = test: Displacement of 125I-CGP-23996 from SRIF receptor on AtT-20 cells (Example 13); format: binding, mouse; settings: for IC50: displacement of 125I-CGP-23996, AtT-20 cells (Example 13), read-out: IC50
[7] = tested on: SRIF receptors present on AtT-20 cells; settings: radioligand 125I-Tyr11-SRIF; read-out: IC50 against 125I-Tyr11-SRIF; cited from earlier work
SRIF receptor [8] = settings: radioligand 125I-CGP-23996; read-out: IC50 when 125I-CGP-23996 was the radioligand; cited from earlier work
β2-adrenergic receptor [9] = test: Binding at the β2-adrenergic receptor; settings: among some sixty-five receptors
[10] = tested on: some sixty-five other receptors; test: Binding at some sixty-five other receptors
NK-1 receptor [11] = biological target: T1, NK-1 receptor; test: Binding at the NK-1 receptor (Examples 109-110)
[12] = TABLE 2 (Example 106), read-out: AtT-20 cells IC50

Ki (hSSTR4): 1700 nM
Ki (hSSTR2): 3.1 µM
Ki (hSSTR5): 5.1 µM
IC50 ([1]; TABLE 1 (Example 105), read-out: AtT-20 cells 50 IC): 8.4 µM
IC50 ([1]; TABLE 3 (Example 108), read-out: AtT-20 IC50): 8.4 µM
Ki (hSSTR3): 3.3 µM
Ki (hSSTR1): 4.1 µM
Molecule: NCCCCCOC[C@H]1O[C@@H](OCCc2c[nH]c3ccccc23)[C@H](OCc2ccccc2)C[C@@H]1OCc1ccccc1 [III-5a, 2-(1H-Indol-3-yl)ethyl 2,4-Di-O-benzyl-3-deoxy-6-O-(5-aminopentyl)-β-D-glucopyranoside]
IC50 [2]: ~10 µM
binding / antagonism at the NK-1 receptor (NK-1 receptor [3]): potent antagonist ligands
binding / antagonism at the β2-adrenergic receptor (β2-adrenergic receptor [4]): bind the β2 -adrenergic receptor as antagonists
hSSTR subtype affinity profile (five hSSTRs): high affinities for hSSTR2 and hSSTR4 and a low affinity for SSTR1

binding of the β-adrenergic receptor (β-Adrenergic receptor): does not bind the β-adrenergic receptor
Inhibition (β-Adrenergic receptor; 125I-CYP (0.1 nM), AtT-20): 0%
IC50 [5]: 400 nM
IC50 (SRIF receptor [6]): 40000 nM
Molecule: CO[C@@H]1O[C@H](COCCCCCN)[C@@H](OCc2ccccc2)[C@H](OCc2ccccc2)[C@H]1OCc1ccccc1 [Methyl 6-O-(5-aminopentyl)-2,3,4-tri-O-benzyl-β-D-glucopyranoside]
binding by the substance P receptor [5]: is bound by the substance P and SRIF receptors
binding by the SRIF receptor (SRIF receptor [6]): is bound by the substance P and SRIF receptors

Molecule: somatostatin [SRIF, reference compound]
IC50 [2]: ~0.0093 µM
binding / antagonism at the NK-1 receptor (NK-1 receptor [3]): do not bind
binding / antagonism at the β2-adrenergic receptor (β2-adrenergic receptor [4]): do not bind
IC50 (SRIF receptor [6]): 9.3 nM
IC50 [7]: 0.83 nM
hSSTR subtype affinity profile (five hSSTRs): decreases in the order SSTR2>>SSTR1>SSTR3>SSTR4 and SSTR5
IC50 (SRIF receptor [8]): 9.3 nM

binding of the β2-adrenergic receptors (β2-adrenergic receptor [9]): did not bind
IC50 [5]: 56 nM
Molecule: CC(=O)NCCCCCOC[C@H]1O[C@@H](OCCc2c[nH]c3ccccc23)[C@H](OCc2ccccc2)[C@@H](OCc2ccccc2)[C@@H]1OCc1ccccc1 [III-4d]
activity / affinity at SRIF receptors of AtT-20 cells [1]: inactive
binding of the SRIF receptors ([1]; among some sixty-five receptors): did not bind
binding of some sixty-five other receptors [10]: did not bind some sixty-five other receptors

Ki (hSSTR4): 1100 nM
binding of the NK-1 receptor (NK-1 receptor [11]): did not bind
IC50 (NK-1 receptor [11]; read-out: affinity at the NK-1 receptor): 150 nM
Ki (hSSTR3): 2.8 µM
Molecule: NCCCCCOC[C@H]1O[C@@H](OCCc2c[nH]c3ccccc23)[C@H](OCc2ccccc2)[C@@H](OCc2ccccc2)[C@@H]1OCc1ccccc1 [III-4a, 2-(1H-Indol-3-yl)ethyl 2,3,4-Tri-O-benzyl-6-O-(5-aminopentyl)-β-D-glucopyranoside]
IC50 [2]: ~15 µM
binding / antagonism at the NK-1 receptor (NK-1 receptor [3]): potent antagonist ligands
binding / antagonism at the β2-adrenergic receptor (β2-adrenergic receptor [4]): bind the β2 -adrenergic receptor as antagonists
hSSTR subtype affinity profile (five hSSTRs): high affinities for hSSTR2 and hSSTR4 and a low affinity for SSTR1

IC50 [1, 12]: 14 µM
IC50 [5]: 120 nM
IC50 (SRIF receptor [6]): 9500 nM
Molecule: OCCCCCNC[C@H]1O[C@@H](OCCc2c[nH]c3ccccc23)[C@H](OCc2ccccc2)[C@@H](OCc2ccccc2)[C@@H]1OCc1ccccc1 [III-4e, 2-(1H-Indol-3-yl)ethyl 2,3,4-Tri-O-benzyl-6-amino-6-deoxy-6-N-(5-hydroxypentyl)-β-D-glucopyranoside]
affinity for the SRIF receptor [2]: about the same as those of III-4a and III-5b

IC50 [1, 12]: 5.1 µM
IC50 [5]: 180 nM
IC50 (SRIF receptor [6]): 1300 nM
Molecule: OCCCCCNC[C@H]1O[C@@H](OCCc2c[nH]c3ccccc23)[C@H](OCc2ccccc2)C[C@@H]1OCc1ccccc1 [III-5c, 2-(1H-Indol-3-yl)ethyl 2,4-Di-O-benzyl-3,6-dideoxy-6-amino-6-N-(5-hydroxypentyl)-β-D-glucopyranoside]
affinity for the SRIF receptor [2]: about the same as those of III-4a and III-5b

IC50 (SRIF receptor [6]): 18.7 nM
Molecule: C[C@@H](O)[C@@H]1NC(=O)[C@H](CCCCN)NC(=O)[C@@H](Cc2c[nH]c3ccccc23)NC(=O)[C@H](Cc2ccccc2)NC(=O)[C@@H]2CCCN2C(=O)[C@H](Cc2ccccc2)NC1=O [L-363,301, reference compound] (HELM PEPTIDE1{P.F.[dW].K.T.F}$PEPTIDE1,PEPTIDE1,1:R1-6:R2$$$V2.0)
binding / antagonism at the NK-1 receptor (NK-1 receptor [3]): do not bind
binding / antagonism at the β2-adrenergic receptor (β2-adrenergic receptor [4]): do not bind
